Data reported in patent US20190233884A1 (University of Southern California, priority 2016, published 2019).

Tested on: patients with refractory metastatic colorectal cancer (mCRC)
Assay: PFS, OS and disease control in the control cohort of refractory mCRC patients receiving regorafenib (n=52, Italy), by baseline characteristics and SNP genotype
Type: in vivo, human
Settings: control cohort
Procedure: All patients underwent the treatment in salvage-line setting.
(§1) Patients in the control group received 160 mg regorafenib (Bayer, Leverkusen, Germany) once daily from day 1 to 21 every 4 weeks. Doses were adjusted based on haematological and non-haematological adverse events at the treating physician's discretion in accordance with the manufacturer's recommendations. The analyses were approved by the University of Southern California (USC) Institutional Review Board of Medical Sciences and conducted at the USC/Norris Comprehensive Cancer Center in accordance with the Declaration of Helsinki and Good Clinical Practice Guidelines.
(§2) Genomic DNA was extracted from peripheral whole blood in patients of all cohorts using the QIAmp Kit (Qiagen, Valencia, Calif., USA) according to the manufacturer's protocol (www.qiagen.com). The candidate SNPs were genotyped using PCR-based direct DNA sequence analysis by ABI 3100A Capillary Genetic Analyzer and Sequencing Scanner v1.0 (Applied Biosystems). Amplification of extracted DNA was carried out using both forward and reverse primers for each gene polymorphism as shown in Table 1. […] The investigators analyzing SNPs were blinded to the clinical data of the study patients.
The primary endpoint in this study was progression-free survival (PFS), and the secondary endpoints were overall survival (OS) and disease control rate (DCR). PFS was calculated from the date of starting treatment to the first observation of disease progression or death from any cause. If a patient had no disease progression or death, PFS was censored at the date of last follow up. OS was calculated from the date of starting treatment until the date of death from any cause or the date of the last follow-up, at which point OS was censored. The disease control rate (DCR) was defined as the proportion of patients who achieved a stable disease (SD) or […] according to RECISTv1.1. Chi-square test was used to examine the difference in baseline patient characteristics among the three cohorts. Allelic distribution of all SNPs by ethnicity for deviation from Hardy-Weinberg equilibrium and the allelic frequencies of SNPs were tested using the Chi-square tests with one degree of freedom. The associations between candidate SNPs and disease control, and toxicities were examined using contingency tables and Fisher's exact test. The associations of SNPs with PFS and OS were analysed using Kaplan-Meier curves and the log-rank test. Because the true mode of inheritance of candidate SNPs was not established yet, a codominant or dominant genetic model if appropriate was considered.
All patients underwent the treatment in salvage-line setting. […] In all patients, adverse events were graded according to the Common Terminology Criteria for Adverse Events, version 4.0.
as §1, with “events at treating physician's” for “events at the treating physician's”
as §2, with “tested” for “genotyped”, “Biosystems).” for “Biosystems). Amplification of extracted DNA was carried out using both forward and reverse primers for each gene polymorphism as shown in Table 1.”, “data.” for “data of the study patients.”
The primary endpoint in this study was progression-free survival (PFS), and the secondary endpoints were overall survival (OS) and disease control rate (DCR). […]

[1] = Sex Female vs Male (Ref.), univariate
[2] = Tumor site Left vs Right (Ref.), univariate
[3] = XRCC3 rs861539 A/A vs G/G (Ref.), multivariable
[4] = XRCC3 rs861539 A/A vs G/G (Ref.), univariate
[5] = XRCC3 rs861539 Any A vs G/G (Ref.), multivariable
[6] = XRCC3 rs861539 Any A vs G/G (Ref.), univariate
[7] = XRCC3 rs861539 G/A vs G/G (Ref.), multivariable
[8] = XRCC3 rs861539 G/A vs G/G (Ref.), univariate
[9] = MATE1 rs2289669 G/A and A/A combined
[10] = MATE1 rs2289669 G/A and A/A combined vs G/G

## CNC(=O)c1cc(Oc2ccc(NC(=O)Nc3ccc(Cl)c(C(F)(F)F)c3)c(F)c2)ccn1 [regorafenib]
Sex Female
  Median OS: 5.5 months
  Median PFS: 2.0 months
[1]
  HR OS: 1.18
  HR PFS: 1.02
Sex Male
  Median OS: 5.4 months
  Median PFS: 1.8 months
Tumor site Left
  Median OS: 7.2 months
  Median PFS: 2.2 months
[2]
  HR OS: 0.82
  HR PFS: 0.80
Tumor site Right
  Median OS: 3.9 months
  Median PFS: 1.8 months
XRCC3 rs861539 A/A
  Disease Control CR/PR/SD, patients n (%): 3 (43%)
  Median OS (95% CI): 5.4 (2.3, 9.1) months
  Median PFS (95% CI): 2.7 (1.7, 4.3) months
  PD, patients n (%): 4 (57%)
[3]
  HR OS (95% CI): 0.54 (0.21, 1.40)
  HR PFS (95% CI): 0.62 (0.23, 1.65)
[4]
  HR OS (95% CI): 0.34 (0.04, 2.95)
  HR PFS (95% CI): 0.83 (0.34, 2.06)
XRCC3 rs861539 Any A
  Disease Control CR/PR/SD, patients n (%): 13 (38%)
  Median OS (95% CI): 5.9 (3.8, 8.0) months
  Median PFS (95% CI): 2.0 (1.8, 3.1) months
  PD, patients n (%): 21 (62%)
[5]
  HR OS (95% CI): 0.71 (0.38, 1.31)
  HR PFS (95% CI): 0.85 (0.44, 1.63)
[6]
  HR OS (95% CI): 0.72 (0.22, 2.39)
  HR PFS (95% CI): 0.83 (0.45, 1.53)
XRCC3 rs861539 G/A
  Disease Control CR/PR/SD, patients n (%): 10 (37%)
  Median OS (95% CI): 6.8 (3.6, 8.7) months
  Median PFS (95% CI): 1.9 (1.8, 3.1) months
  PD, patients n (%): 17 (63%)
[7]
  HR OS (95% CI): 0.76 (0.40, 1.44)
  HR PFS (95% CI): 0.92 (0.47, 1.79)
[8]
  HR OS (95% CI): 0.86 (0.25, 2.96)
  HR PFS (95% CI): 0.83 (0.44, 1.56)
XRCC3 rs861539 G/G
  Disease Control CR/PR/SD, patients n (%): 4 (27%)
  Median OS (95% CI): 4.1 (1.7, 6.0) months
  Median PFS (95% CI): 1.7 (1.0, 2.2) months
  PD, patients n (%): 11 (73%)
MATE1 rs2289669 A/A
  Disease Control Rate PD: 5 (50%)
  Disease Control Rate SD: 3 (50%)
MATE1 rs2289669 G/A
  Disease Control Rate SD: 7 (27%)
  PD, patients n (%): 19 (73%)
[9]
  Overall Survival Median, months (95% CI): 5.3 (3.7, 8.0) months
  Progression-free Survival Median, months (95% CI): 1.8 (1.7, 2.8) months
[10]
  Overall Survival HR (95% CI) multivariate: 0.99 (0.52, 1.91)
  Overall Survival HR (95% CI) univariate: 0.85 (0.50, 1.57)
  Progression-free Survival HR (95% CI) multivariate: 0.86 (0.43, 1.70)
  Progression-free Survival HR (95% CI) univariate: 0.65 (0.48, 1.52)
MATE1 rs2289669 G/G
  Disease Control Rate PD: 10 (59%)
  Disease Control Rate SD: 7 (41%)
  Overall Survival Median, months (95% CI): 5.7 (2.2, 7.8) months
  Progression-free Survival Median, months (95% CI): 2.1 (1.5, 3.1) months
OCT2 rs316000
  Overall Survival HR (95% CI) univariate: 0.95 (0.50, 1.83)
  Progression-free Survival HR (95% CI) univariate: 0.95 (0.50, 1.83)
OCT2 rs316019 A/A
  Disease Control Rate PD: 1 (100%)
  Disease Control Rate SD: 0
OCT2 rs316019 C/A
  Disease Control Rate PD: 6 (86%)
